# Legend:
# [1] = system: mixed lymphocyte reaction (MLR); assay: mixed lymphocyte reaction (MLR); assay type: cell-based; conditions: read-out: IC
# [2] = system: human lung carcinoma A-549; assay: in vitro antitumor activity, A-549 tumour cells; assay type: cell-based; conditions: A549
# Protocol: (§1) The antitumor activities of this compound have been determined “in vitro” in cell cultures of human lung carcinoma A-549 and human colon carcinoma HT-29. The procedure was carried out using the methodology described by Raymond J. Bergeron et al. Biochem. Bioph. Res. Comm. 1984, 121(3), 848-854 and by Alan C. Schroeder et al. J. Med. Chem. 1981, 24 1078-1083.
# (§2) The compound is active against the following tumour cells at the inhibiting concentrations noted: […]
# [3] = system: primary culture of murine lymphocytes; assay: cytotoxicity assay against primary culture of murine lymphocytes; assay type: cell-based; conditions: Mus musculus, Lymphocyte
# KB = assay: in vitro antitumor activity, KB tumour cells; assay type: cell-based; conditions: Homo sapiens
# LD50 i.p. in mice = conditions: mouse, in vivo, ip
# S. aureus = assay: antibiotic disk assay, S. aureus; assay type: cell-based; conditions: 10 μg/disk
# Penicillium notatum = assay: antifungal disk assay, Penicillium notatum; assay type: cell-based; conditions: Penicillium chrysogenum, 50 μg/disk
# pH stability = assay type: physicochemical
# Protocol: Palau'amine was isolated from the sponge as follows. Extraction of the lyophilized sponge (600 g) with MeOH (6 L) and dissolution of the water soluble residue after evaporation yielded 900 ml of an aqueous extract. [The dust from the lyophilized sponge caused a powerful allergic reaction, which entailed severe shortness of breath for about four hours; the effect largely disappeared within 24 hours]. […] Repeated LH-20 chromatography (MeOH) of the 0.5 fraction, after desalting by dissolving in EtOH, furnished essentially pure palau'amine, presumably as the hydrochloride, (14 mg, 0.01% dry weight) as an optically active, off-white amorphous powder that decomposed prior to melting. Further purification of palau'amine could be effected by HPLC [YMC aqueous C18, H2O/MeCN (90:10), 0.1% TFA].
# B. subtilis = assay: antibiotic disk assay, B. subtilis; assay type: cell-based; conditions: 10 μg/disk
# [4] = system: human colon carcinoma HT-29; assay: in vitro antitumor activity, HT-29 tumour cells; assay type: cell-based
# Protocol: as §1, §2
# P-388 = assay: in vitro antitumor activity, P-388 tumour cells; assay type: cell-based; conditions: Mus musculus, P388
smiles,measurement,setting,value
NC[C@H]1[C@H]2CN3C(=O)c4cccn4[C@H]4N=C(N)NC43[C@H]2[C@@]2(N=C(N)N[C@@H]2O)[C@@H]1Cl (stereo partly drawn) [palau'amine],IC50,[1],< 0.018 µg/mL
same,IC50,[2],0.2 µg/mL
same,IC50,[3],1.5 µg/mL
same,IC50,KB,10 µg/mL
same,LD50,LD50 i.p. in mice,13 mg/kg
same,antibiotic activity,S. aureus,antibiotic activity
same,zone of inhibition at 50 µg/disc,Penicillium notatum,24 mm
same,stability >pH 6.5,pH stability; >pH 6.5,decomposes rapidly
same,stability in acid,pH stability; in acid,quite stable
same,antibiotic activity,B. subtilis,antibiotic activity
same,IC50,[4],2 µg/mL
same,IC50,P-388,0.1 µg/mL

# From US20020198379A1, “Active compound from a sponge” (Pharma Mar, s.a., priority 1993, published 2002)
